Results reported in patent US6608082B1, “Treatment of erectile dysfunction using isoquinoline compound melanocortin receptor ligands” (Lion Bioscience AG, priority 1998, dated 2003).
Read-outs that look alike come from different tables or passages of the source. Blank lines part the entries; values can stand above or below the molecule they belong to.

Molecular target: T1, MCR-1 (Homo sapiens, UniProt Q01726)
T1 construct: expressed in transfected cells; host or cells: HEK 293
Assay: Melanocortin receptor binding assay, competition with 125I-HP 467, HEK 293 cells expressing hMCR-1
Conditions: for IC50: read-out: MC-1 IC50; for % Disp. MC-1 10 μM: displacement of 125I-HP 467 at 10 μM isoquinoline compound; for % Disp. of 125I-HP 467 (first of duplicate) / % Disp. of 125I-HP 467 (second of duplicate): 10 μM isoquinoline compound; for % Disp. of 125I-HP 467 (first of duplicate): HEK 293 cells expressing MCR-1, duplicate 1; for % Disp. of 125I-HP 467 (second of duplicate): HEK 293 cells expressing MCR-1, duplicate 2; for effectiveness as MC receptor ligand: binding to MC receptors, Table 1
Summary of the method: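 Test compounds compete on intact HEK 293 cells carrying hMCR-1 (2×10^4 per tube) or hMCR-4 (4×10^3 per tube), suspended in PBS, 10% calf serum, 1 mM CaCl2.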

[1] = competition with 125I-HP 467, HEK 293 cells expressing MCR-1
[2] = inhibition of binding of 125I-HP 467, HEK 293 cells expressing MCR-1

T1 sequence (Q01726 whole entry): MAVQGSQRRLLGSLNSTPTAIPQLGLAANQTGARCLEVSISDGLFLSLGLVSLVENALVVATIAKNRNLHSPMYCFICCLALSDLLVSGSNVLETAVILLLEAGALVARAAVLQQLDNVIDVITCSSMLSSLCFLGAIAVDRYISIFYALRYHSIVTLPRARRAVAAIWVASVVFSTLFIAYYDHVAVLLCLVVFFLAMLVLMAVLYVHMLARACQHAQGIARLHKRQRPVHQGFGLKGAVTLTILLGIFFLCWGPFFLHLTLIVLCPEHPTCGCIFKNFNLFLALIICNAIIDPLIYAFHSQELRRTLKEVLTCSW

IC50 [1]: 390 nM
Structure (SMILES): CCNc1ccc(C2C(CN)c3ccccc3CN2CCCCC(CN)NCCc2ccc(OC)cc2)cc1 (stereo not drawn) [TRG 2411-65]

% Disp. MC-1 10 μM (first of duplicate): 39.8% | % Disp. MC-1 10 μM (second of duplicate): 39.6%
Structure (SMILES): CNC(CN)CN1Cc2ccccc2C(CNC2CCCCC2)C1c1cccc(CN)c1 (stereo not drawn) [TRG 2405-129]

IC50 [2]: 4880 nM
Structure (SMILES): CNC(CN)CCCCN1Cc2ccccc2C(CNCCc2ccccc2)C1c1ccc([N+](=O)[O-])cc1 (mixture of isomers) [TRG 2413-5]

% Disp. MC-1 10 μM (first of duplicate): 40.7% | % Disp. MC-1 10 μM (second of duplicate): 44.7%
Structure (SMILES): CNC(CN)CN1Cc2ccccc2C(CNC2CCCCC2)C1c1ccccc1F (stereo not drawn) [TRG 2405-106]

% Disp. of 125I-HP 467 (first of duplicate): 57.3% | % Disp. of 125I-HP 467 (second of duplicate): 64.4%
Structure (SMILES): CNC(CN)CCCCN1Cc2ccccc2C(CNC2CCCCC2)C1c1ccccc1 (stereo not drawn) [TRG 2405-181]

IC50 [2]: 130 nM
Structure (SMILES): CCNc1ccc(C2C(CN)c3ccccc3CN2CCCC(CN)NCc2ccc(Cl)cc2)cc1 (stereo not drawn) [TRG 2411-183]

IC50 [2]: 6510 nM
Structure (SMILES): CNC(CN)CCCCN1Cc2ccccc2C(CN)C1c1ccc([N+](=O)[O-])cc1 (stereo not drawn) [TRG 2413-6]

IC50 [1]: 370 nM
Structure (SMILES): CNC(C)CNC(CN)CCCN1Cc2ccccc2C(CNCCc2ccccc2)C1c1ccc(-c2ccccc2)cc1 (stereo not drawn) [TRG 2411-119]

IC50 [1]: 50 nM
Structure (SMILES): CCNc1ccc(C2C(CN)c3ccccc3CN2CCCCC(CN)NCC)cc1 (stereo not drawn) [TRG 2411-60]
effectiveness as MC receptor ligand: particularly effective MC receptor ligands

% Disp. of 125I-HP 467 (first of duplicate): 69.6% | % Disp. of 125I-HP 467 (second of duplicate): 66.5%
Structure (SMILES): CNC(CN)CCCCN1Cc2ccccc2C(CNC2CCCCC2)C1c1ccc(OC)cc1 (stereo not drawn) [TRG 2405-240]

IC50 [1]: 80 nM
Structure (SMILES): CCCCNC(CN)CCCCN1Cc2ccccc2C(CNC2CCCCC2)C1c1ccc(NCC)cc1 (stereo not drawn) [TRG 2411-50]
effectiveness as MC receptor ligand: particularly effective MC receptor ligands

% Disp. MC-1 10 μM (first of duplicate): 59.8% | % Disp. MC-1 10 μM (second of duplicate): 53.6%
Structure (SMILES): NCCN1Cc2ccccc2C(CNC2CCCCC2)C1c1ccc2ccccc2c1 (stereo not drawn) [TRG 2405-20]

IC50 [1]: 630 nM
Structure (SMILES): NCC(CCCCN1Cc2ccccc2C(CNCCc2ccccc2)C1c1ccc(-c2ccccc2)cc1)NCCO (stereo not drawn) [TRG 2411-7]

% Disp. of 125I-HP 467 (first of duplicate): 83.6% | % Disp. of 125I-HP 467 (second of duplicate): 81%
Structure (SMILES): CNC(CN)CCCCN1Cc2ccccc2C(CNC2CCCCC2)C1c1ccc2ccccc2c1 (stereo not drawn) [TRG 2405-200]

IC50 [2]: 250 nM
Structure (SMILES): CCCCOc1ccc(C2C(CNCCc3ccccc3)c3ccccc3CN2CCCC(CN)NCc2ccccc2)cc1 (stereo not drawn) [TRG 2412-27]

IC50 [2]: 80 nM
Structure (SMILES): CCCCNc1ccc(C2C(CNCCc3ccccc3)c3ccccc3CN2CCCC(CN)NCc2ccc(Cl)cc2)cc1 (stereo not drawn) [TRG 2411-197]

% Disp. MC-1 10 μM (first of duplicate): 54.6% | % Disp. MC-1 10 μM (second of duplicate): 50.4%
Structure (SMILES): CNC(CN)CN1Cc2ccccc2C(CNC2CCCCC2)C1c1ccsc1 (mixture of isomers) [TRG 2405-143]

% Disp. of 125I-HP 467 (first of duplicate): 83% | % Disp. of 125I-HP 467 (second of duplicate): 85.3%
Structure (SMILES): CNC(CN)CCCCN1Cc2ccccc2C(CNC2CCCCC2)C1c1ccc(C(C)C)cc1 (stereo not drawn) [TRG 2405-247]

IC50 [2]: 540 nM
Structure (SMILES): CNCCNC(CN)CCCCN1Cc2ccccc2C(CN)C1c1ccc(-c2ccccc2)cc1 (stereo not drawn) [TRG 2413-2]

IC50 [2]: 570 nM
Structure (SMILES): CCCOc1ccc(C2C(CNCCc3ccccc3)c3ccccc3CN2CCCCC(CN)NCc2ccccc2)cc1 (stereo not drawn) [TRG 2412-9]

% Disp. MC-1 10 μM (first of duplicate): 18.5% | % Disp. MC-1 10 μM (second of duplicate): 29.6%
Structure (SMILES): NCCN1Cc2ccccc2C(CNC2CCCCC2)C1c1ccc2cccc(O)c2n1 (stereo not drawn) [TRG 2405-82]

IC50 [1]: 730 nM
Structure (SMILES): NCC(CCCCN1Cc2ccccc2C(CNCCc2ccccc2)C1c1ccc(-c2ccccc2)cc1)NCC1CCCCC1 (stereo not drawn) [TRG 2411-12]

IC50 [2]: 340 nM
Structure (SMILES): CCNc1ccc(C2C(CNCCc3ccccc3)c3ccccc3CN2CCCCC(CN)NCCNC)cc1 (stereo not drawn) [TRG 2413-4]

% Disp. MC-1 10 μM (first of duplicate): 29.6% | % Disp. MC-1 10 μM (second of duplicate): 41.7%
Structure (SMILES): CNC(CN)CN1Cc2ccccc2C(CNC2CCCCC2)C1c1ccc(OCCCN(C)C)cc1 (stereo not drawn) [TRG 2405-144]

% Disp. MC-1 10 μM (first of duplicate): 56.9% | % Disp. MC-1 10 μM (second of duplicate): 53%
Structure (SMILES): NCCN1Cc2ccccc2C(CNC2CCCCC2)C1c1ccc(Cl)cc1Cl (stereo not drawn) [TRG 2405-10]

IC50 [2]: 1920 nM
Structure (SMILES): NCC(CCCN1Cc2ccccc2C(CN)C1c1ccc([N+](=O)[O-])cc1)NCCc1ccccc1 (stereo not drawn) [TRG 2413-15]

% Disp. of 125I-HP 467 (first of duplicate): 25% | % Disp. of 125I-HP 467 (second of duplicate): 22.1%
Structure (SMILES): CNC(CN)CN1Cc2ccccc2C(CNC2CCCCC2)C1c1ccc(OC)c(S(=O)(=O)O)c1 (stereo not drawn) [TRG 2405-178]

IC50 [1]: 1620 nM
Structure (SMILES): CNC(CN)CCCN1Cc2ccccc2C(CN)C1c1ccc(-c2ccccc2)cc1 (stereo not drawn) [TRG 2411-137]

IC50 [1]: 1360 nM
Structure (SMILES): CNCCNC(CN)CCCN1Cc2ccccc2C(CN)C1c1ccc(-c2ccccc2)cc1 (stereo not drawn) [TRG 2411-140]

% Disp. of 125I-HP 467 (first of duplicate): 65.2% | % Disp. of 125I-HP 467 (second of duplicate): 62.7%
Structure (SMILES): CNC(CN)CCCCN1Cc2ccccc2C(CNC2CCCCC2)C1c1cccc(F)c1 (stereo not drawn) [TRG 2405-221]
